US20040010001A1, “Methods and compositions for modulating cell proliferation and cell death” (priority 1999, published 2004)
Where two headings read alike, the source gives them in different places.

Legend:
[1] = tested on: Human prostate PC3 tumor cells; experiment: Drug treatment and extracellular bFGF (ELISA), LDH release, cell number; assay type: cell-based; conditions: for Extracellular LDH, % of control / Extracellular bFGF, % of control / Extracellular concentration bFGF / bFGF:LDH ratio: 72 hours
Description: The experimental conditions are described briefly below. […] The remaining cell number at the end of treatment was counted using a Coulter counter. The extracellular bFGF concentration was measured using ELISA. The release of lactate dehydrogenase (LDH) into the extracellular culture medium is indicative of cell death and gives a measure of the release of cellular content into the culture medium. If the increase in extracellular bFGF level is due to the release of bFGF upon cell death and lysis, the increase in bFGF will be accompanied by an increase in LDH in the same extent. This would result in an higher bFGF level and a constant bFGF-to-LDH ratio. On the other hand, an increase in extracellular bFGF due to an increase in bFGF production and release of bFGF from cells by processes other than cell lysis will result in an higher bFGF level and an higher bFGF-to-LDH ratio.

[2] = tested on: Human prostate PC3 tumor cells; experiment: aFGF/bFGF-induced resistance and reversal by suramin, sulforhodamine B assay; assay type: cell-based
Description: The experimental conditions are described briefly below. […] Cell number was measured using the sulforhodamine B assay which measures the total protein concentration. […] The FGF-induced resistance was dependent on the FGF concentrations, with a higher resistance at higher FGF concentrations.

[3] = no suramin, relative to control
[4] = read-out: IC50, Control (without FGF treatment), Suramin, 15 μM, drug 96 hours with 15 μM suramin
[5] = read-out: IC50, aFGF 0.3 ng/ml + bFGF 1 ng/ml, With suramin, FGF pretreatment 96 hours, drug 96 hours with 15 micromolar suramin
[6] = read-out: IC50, aFGF 1 ng/ml + bFGF 3 ng/ml, With suramin, FGF pretreatment 96 hours, drug 96 hours with 15 micromolar suramin
[7] = Homo sapiens, read-out: IC50, Control (drug treatment only, without FGF treatment), No suramin, drug 96 hours
[8] = Homo sapiens, read-out: IC50, aFGF 0.3 ng/ml + bFGF 1 ng/ml, No suramin, FGF pretreatment 96 hours, drug 96 hours
[9] = Homo sapiens, read-out: IC50, aFGF 1 ng/ml + bFGF 3 ng/ml, No suramin, FGF pretreatment 96 hours, drug 96 hours

For N.N.[Cl][Pt][Cl] [Cisplatin], the “Remaining cell number at 72 hours (% of control)” value ([1]; drug concentration 2000 NM) was 86%, the “Remaining cell number at 72 hours × 10^6” value ([1]; drug concentration 2000 NM) was 1.9 × 10^6 and the “Extracellular LDH, % of control” value ([1]; drug concentration 2000 NM) was 169 % of control. The “Extracellular bFGF, % of control” value ([1]; drug concentration 2000 NM) was 267 % of control, the “Extracellular concentration bFGF” value ([1]; drug concentration 2000 NM) was 5.87 pg/mL and the “bFGF:LDH ratio” value ([1]; drug concentration 2000 NM) was 1.58. The “Remaining cell number at 72 hours (% of control)” value ([1]; drug concentration 6000 NM) was 45%, the “Remaining cell number at 72 hours × 10^6” value ([1]; drug concentration 6000 NM) was 1.0 × 10^6 and the “Extracellular LDH, % of control” value ([1]; drug concentration 6000 NM) was 534 % of control. The “Extracellular bFGF, % of control” value ([1]; drug concentration 6000 NM) was 1561 % of control, the “Extracellular concentration bFGF” value ([1]; drug concentration 6000 NM) was 95.9 pg/mL and the “bFGF:LDH ratio” value ([1]; drug concentration 6000 NM) was 2.92. The “Remaining cell number at 72 hours (% of control)” value ([1]; drug concentration 20000 NM) was 18%, the “Remaining cell number at 72 hours × 10^6” value ([1]; drug concentration 20000 NM) was 0.4 × 10^6 and the “Extracellular LDH, % of control” value ([1]; drug concentration 20000 NM) was 563 % of control. For the same molecule, the “Extracellular bFGF, % of control” value ([1]; drug concentration 20000 NM) was 1641 % of control, the “Extracellular concentration bFGF” value ([1]; drug concentration 20000 NM) was 101 pg/mL and the “bFGF:LDH ratio” value ([1]; drug concentration 20000 NM) was 2.88. For the same molecule, the “Resistance, Folds, aFGF 0.3 ng/ml + bFGF 1 ng/ml” value [2, 3] was 1.76 Folds, the “Resistance, Folds, aFGF 1 ng/ml + bFGF 3 ng/ml” value [2, 3] was 3.69 Folds and the IC50 ([2]; read-out: IC50, Control (drug treatment only, without FGF treatment), No suramin, drug 96 hours) was 2760 nM. It also gave an IC50 [2, 4] of 2690 nM, an IC50 ([2]; read-out: IC50, aFGF 0.3 ng/ml + bFGF 1 ng/ml, No suramin, FGF pretreatment 96 hours, drug 96 hours) of 4850 nM and an IC50 [2, 5] of 3090 nM. The IC50 ([2]; read-out: IC50, aFGF 1 ng/ml + bFGF 3 ng/ml, No suramin, FGF pretreatment 96 hours, drug 96 hours) was 10200 nM and the IC50 [2, 6] was 3010 nM.

CC[C@@]1(O)C(=O)OCc2c1cc1n(c2=O)Cc2cc3ccccc3nc2-1 [Camptothecin] was tested, and the “Remaining cell number at 72 hours (% of control)” value ([1]; drug concentration 2 NM) was 83%, the “Remaining cell number at 72 hours × 10^6” value ([1]; drug concentration 2 NM) was 2.0 × 10^6 and the “Extracellular LDH, % of control” value ([1]; drug concentration 2 NM) was 137 % of control. The “Extracellular bFGF, % of control” value ([1]; drug concentration 2 NM) was 145 % of control, the “Extracellular concentration bFGF” value ([1]; drug concentration 2 NM) was 9.08 pg/mL and the “bFGF:LDH ratio” value ([1]; drug concentration 2 NM) was 1.06. The “Remaining cell number at 72 hours (% of control)” value ([1]; drug concentration 6 NM) was 50%, the “Remaining cell number at 72 hours × 10^6” value ([1]; drug concentration 6 NM) was 1.2 × 10^6 and the “Extracellular LDH, % of control” value ([1]; drug concentration 6 NM) was 182 % of control. The “Extracellular bFGF, % of control” value ([1]; drug concentration 6 NM) was 221 % of control, the “Extracellular concentration bFGF” value ([1]; drug concentration 6 NM) was 13.9 pg/mL and the “bFGF:LDH ratio” value ([1]; drug concentration 6 NM) was 1.22. The “Remaining cell number at 72 hours (% of control)” value ([1]; drug concentration 20 NM) was 21%, the “Remaining cell number at 72 hours × 10^6” value ([1]; drug concentration 20 NM) was 0.5 × 10^6 and the “Extracellular LDH, % of control” value ([1]; drug concentration 20 NM) was 219 % of control. The “Extracellular bFGF, % of control” value ([1]; drug concentration 20 NM) was 279 % of control, the “Extracellular concentration bFGF” value ([1]; drug concentration 20 NM) was 17.5 pg/mL and the “bFGF:LDH ratio” value ([1]; drug concentration 20 NM) was 1.28. The IC50 [2, 7] was 5.03 nM, the IC50 [2, 8] was 11.4 nM and the IC50 [2, 9] was 17.2 nM. For the same molecule, the “Resistance, Folds, aFGF 0.3 ng/ml + bFGF 1 ng/ml” value [2, 3] was 2.26 Folds, the “Resistance, Folds, aFGF 1 ng/ml + bFGF 3 ng/ml” value [2, 3] was 3.42 Folds and the IC50 [2, 4] was 4.8 nM. For the same molecule, the IC50 [2, 5] was 5.4 nM and the IC50 [2, 6] was 5.78 nM.

With CC[C@]1(O)C[C@@H]2CN(CCc3c([nH]c4ccccc34)[C@@](C(=O)OC)(c3cc4c(cc3OC)N(C)[C@H]3[C@@](O)(C(=O)OC)[C@H](OC(C)=O)[C@]5(CC)C=CCN6CC[C@]43[C@@H]65)C2)C1 [Vinblastine] the “Remaining cell number at 72 hours (% of control)” value ([1]; drug concentration 0.5 NM) was 74%, the “Remaining cell number at 72 hours × 10^6” value ([1]; drug concentration 0.5 NM) was 1.7 × 10^6 and the “Extracellular LDH, % of control” value ([1]; drug concentration 0.5 NM) was 263 % of control. The “Extracellular bFGF, % of control” value ([1]; drug concentration 0.5 NM) was 675 % of control, the “Extracellular concentration bFGF” value ([1]; drug concentration 0.5 NM) was 59.1 pg/mL and the “bFGF:LDH ratio” value ([1]; drug concentration 0.5 NM) was 2.57. The “Remaining cell number at 72 hours (% of control)” value ([1]; drug concentration 1 NM) was 43%, the “Remaining cell number at 72 hours × 10^6” value ([1]; drug concentration 1 NM) was 1.0 × 10^6 and the “Extracellular LDH, % of control” value ([1]; drug concentration 1 NM) was 326 % of control. The “Extracellular bFGF, % of control” value ([1]; drug concentration 1 NM) was 1073 % of control, the “Extracellular concentration bFGF” value ([1]; drug concentration 1 NM) was 94.0 pg/mL and the “bFGF:LDH ratio” value ([1]; drug concentration 1 NM) was 3.29. For the same molecule, the “Remaining cell number at 72 hours (% of control)” value ([1]; drug concentration 2 NM) was 17%, the “Remaining cell number at 72 hours × 10^6” value ([1]; drug concentration 2 NM) was 0.4 × 10^6 and the “Extracellular LDH, % of control” value ([1]; drug concentration 2 NM) was 513 % of control. For the same molecule, the “Extracellular bFGF, % of control” value ([1]; drug concentration 2 NM) was 2046 % of control, the “Extracellular concentration bFGF” value ([1]; drug concentration 2 NM) was 179 pg/mL and the “bFGF:LDH ratio” value ([1]; drug concentration 2 NM) was 3.99. It also gave an IC50 [2, 7] of 0.33 nM, an IC50 [2, 8] of 0.45 nM and an IC50 [2, 9] of 0.78 nM. For the same molecule, the “Resistance, Folds, aFGF 0.3 ng/ml + bFGF 1 ng/ml” value [2, 3] was 1.36 Folds, the “Resistance, Folds, aFGF 1 ng/ml + bFGF 3 ng/ml” value [2, 3] was 2.36 Folds and the IC50 [2, 4] was 0.4 nM. It also gave an IC50 [2, 5] of 0.42 nM and an IC50 [2, 6] of 0.35 nM.

COc1cccc2c1C(=O)c1c(O)c3c(c(O)c1C2=O)C[C@@](O)(C(=O)CO)C[C@@H]3O[C@H]1C[C@H](N)[C@@H](O)[C@H](C)O1 [Epirubicin] was tested, and the IC50 [2, 7] was 102 nM, the IC50 [2, 8] was 167 nM and the IC50 [2, 9] was 282 nM. The “Resistance, Folds, aFGF 0.3 ng/ml + bFGF 1 ng/ml” value [2, 3] was 1.63 Folds, the “Resistance, Folds, aFGF 1 ng/ml + bFGF 3 ng/ml” value [2, 3] was 2.75 Folds and the IC50 [2, 4] was 120 nM. For the same molecule, the IC50 [2, 5] was 122 nM and the IC50 [2, 6] was 137 nM.

Work on Sc1ncnc2nc[nH]c12 [6-Mercaptopurine] yielded an IC50 [2, 7] of 1570 nM, an IC50 [2, 8] of 2990 nM and an IC50 [2, 9] of 5500 nM. For the same molecule, the “Resistance, Folds, aFGF 0.3 ng/ml + bFGF 1 ng/ml” value [2, 3] was 1.90 Folds, the “Resistance, Folds, aFGF 1 ng/ml + bFGF 3 ng/ml” value [2, 3] was 3.50 Folds and the IC50 [2, 4] was 1670 nM. For the same molecule, the IC50 [2, 5] was 1700 nM and the IC50 [2, 6] was 1550 nM.

Oc1ncc(N(CCCl)CCCl)c(O)n1 [Uracil Mustard] was tested, and the “Resistance, Folds, aFGF 0.3 ng/ml + bFGF 1 ng/ml” value [2] was 1.41 Folds, the “Resistance, Folds, aFGF 1 ng/ml + bFGF 3 ng/ml” value [2] was 2.24 Folds and the IC50 ([2]; Homo sapiens, 96 h, read-out: IC50, Control (drug treatment only, without FGF treatment), No suramin) was 30000 nM. For the same molecule, the IC50 ([2]; Homo sapiens, 96 h, read-out: IC50, aFGF 0.3 ng/ml + bFGF 1 ng/ml, No suramin) was 42400 nM, the IC50 ([2]; Homo sapiens, 96 h, read-out: IC50, aFGF 1 ng/ml + bFGF 3 ng/ml, No suramin) was 67100 nM and the IC50 ([2]; read-out: IC50, Control (without FGF treatment), Suramin, 15 μM) was 38200 nM. The IC50 ([2]; read-out: IC50, aFGF 0.3 ng/ml + bFGF 1 ng/ml, With suramin) was 37600 nM and the IC50 ([2]; read-out: IC50, aFGF 1 ng/ml + bFGF 3 ng/ml, With suramin) was 34600 nM.
